According to US6881420B2 (Teva Pharmaceutical Industries Ltd., priority 2000, dated 2005):

Experiments:
[1] = cited from earlier work
topoisomerase I = target: T1, topoisomerase I (Homo sapiens, UniProt P11387); details: cited from earlier work
T1 sequence (P11387 1-765): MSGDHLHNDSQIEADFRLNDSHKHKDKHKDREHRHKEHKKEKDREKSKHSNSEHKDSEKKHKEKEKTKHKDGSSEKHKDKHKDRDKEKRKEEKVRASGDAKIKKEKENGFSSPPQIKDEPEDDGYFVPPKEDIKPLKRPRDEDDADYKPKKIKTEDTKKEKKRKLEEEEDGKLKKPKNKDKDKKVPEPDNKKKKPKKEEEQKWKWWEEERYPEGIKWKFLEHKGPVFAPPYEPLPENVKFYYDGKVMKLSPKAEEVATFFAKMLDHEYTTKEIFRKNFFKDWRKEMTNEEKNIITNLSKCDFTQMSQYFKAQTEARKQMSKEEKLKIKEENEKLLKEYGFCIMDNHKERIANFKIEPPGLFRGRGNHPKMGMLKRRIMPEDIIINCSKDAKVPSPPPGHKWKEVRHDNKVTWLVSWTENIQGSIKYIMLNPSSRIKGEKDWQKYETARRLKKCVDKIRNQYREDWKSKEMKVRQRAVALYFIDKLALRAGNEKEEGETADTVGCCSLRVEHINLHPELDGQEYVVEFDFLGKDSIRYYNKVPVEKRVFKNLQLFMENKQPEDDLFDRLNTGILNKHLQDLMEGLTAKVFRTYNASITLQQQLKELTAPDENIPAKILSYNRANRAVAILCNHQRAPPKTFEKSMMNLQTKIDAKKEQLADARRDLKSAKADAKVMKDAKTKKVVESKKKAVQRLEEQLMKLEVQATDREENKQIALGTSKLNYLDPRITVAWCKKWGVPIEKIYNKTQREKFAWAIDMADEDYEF

[2] = Systemic delivery of irinotecan and SN-38 after GRDS tablet versus i.v. in the beagle dog; details: irinotecan in gastric retention dosage form, oral
Experimental: A plot of plasma concentration against time allows calculation of the area under the curves and the relative bioavailability of the various forms of the drug.
Prior to the study, an adequate amount (5-10 ml) of whole blood is drawn from each dog. The blood is used to prepare the standard calibration reference curve. At the study, the foreleg (right or left, as deemed appropriate by the animal handler), is shaved using an electric shaver, and the area cleansed with a chlorhexidine swab. A permanent in-dwelling polyethylene catheter is inserted using a 23 gauge needle in the cephalic vein in the foreleg of each dog and taped in place to allow for periodic blood sampling over 12 hours. […]
At each time point, 2.0 ml blood is removed by syringe and then placed into a pre-labeled heparinized test tube. […] The concentration of the components are measured using literature HPLC methods.
The dogs are fasted overnight for a period of at least 12 hours at which time they receive a single mixed meal of solid food and liquid nutrients. 250 grams of bite-size commercial dog chow (Bonzo Feed®) are measured and placed in a feeding dish. […] The food remaining in the dish is measured and the difference from the original 250 grams is recorded as the amount of food consumed. […]
Two hours after the meal, the dog is dosed with the test tablet. […] The methanol samples are analyzed by HPLC. […]

[3] = Relative oral, non-gastric retention bioavailability of irinotecan and SN-38 derived from literature; format: in vivo; details: human, blood (bloodstream); oral non-gastric retention relative to intravenous; read-out: Calculated Relative Bioavailabilty of Lactone [formula]
Text: Quantity “A” is the total area under the bloodstream concentration curve over time.
ATotal=ALactone+ACarboxylate is the sum of the areas under the curve of lactone and carboxylate forms of the species.

Structure (SMILES)	[formula] ratio of lactone AUC to total AUC, intravenous ([1]; irinotecan given intravenously)	[formula] overall delivery to the bloodstream, total AUC oral relative to intravenous ([1]; irinotecan given orally, conventional non-gastric retention, vs IV, lactone + carboxylate)	[formula] ratio absorbed in the lactone form (lactone AUC / total AUC), oral ([1]; irinotecan given orally, conventional non-gastric retention)	Potency as inhibitor of topoisomerase I relative to irinotecan (topoisomerase I)	Ratio absorbed in the lactone form [formula] [2]	Overall delivery to the bloodstream [formula], gastric retention relative to intravenous ([2]; vs IV)	bioavailability [3] [%]
CCc1c2c(nc3ccc(O)cc13)-c1cc3c(c(=O)n1C2)COC(=O)[C@]3(O)CC [SN-38, 7-ethyl-10-hydroxycamptothecin]	0.50	0.16	0.73	approximately a thousand times more potent	0.9	0.4	–
CCc1c2c(nc3ccc(OC(=O)N4CCC(N5CCCCC5)CC4)cc13)-c1cc3c(c(=O)n1C2)COC(=O)[C@]3(O)CC [Irinotecan]	–	–	–	–	–	–	12
